Results: patent US20260000698A1 (priority 2022, published 2026)
Marks after values point to notes of the source that are not given here.

How the values were obtained:
[1] = system: SARS-CoV-2 isolate USA-WA1/2020
A549/ACE2/TMPRSS2 cells = test: in vitro; conditions: A549/ACE2/TMPRSS2 cells
Protocol: Percentage of infected cells was determined by dividing the number of infected cells by the total number of cells per well. The percentage of infected cells and total number of cells for each treatment was plotted into GraphPad prism (GraphPad Software; San Diego, CA, USA) to perform a non-linear regression analysis, generate infectious dose-response curves and to calculate EC50 and CC50 values.
Viability assays for the non-infected A549/ACE2/TMPRSS2 cells were performed using the 3-(4,5-dimethylthiazol-2-yl)-5-(3-carboxymethoxyphenyl)-2-(4-sulfophenyl)-2H-tetrazolium (MTS)-based tetrazolium reduction CellTiter 96 Aqueous Non-Radioactive cell proliferation assay (Promega G5430; Madison, WI) as described. Assays were conducted using parallel plates to those used in the immunofluorescence assay. Experimental details (cell line, number of cells seeded and incubation time) corresponded to those used in the immunofluorescence assay above. The data obtained were used to calculate the CC50 value using GraphPad Prism software.

[2] = Solubility as observed in antiviral testing
[3] = system: SARS-CoV-2 isolate USA-WA1/2020; test: microbe, parasite or virus in culture; conditions: Severe acute respiratory syndrome coronavirus 2, A549-ACE2, 48 h
[4] = not given; remark: listed apart in the source
[5] = Parallel artificial membrane permeability assay (PAMPA); format: in vitro ADME
Protocol: Parallel artificial membrane permeability assay (PAMPA).^5 The membrane permeability of selected compounds was evaluated using the Corning® BioCoat™ Pre-coated PAMPA Plate System (Corning 353015; Glendale, AZ, USA). The pre-coated plate assembly, which was stored at −20° C., was taken to thaw for 30 min at room temperature. The permeability assay was carried out in accordance with the manufacturer's protocol. Briefly, the 96-well filter plate, pre-coated with lipids, was used as the permeation acceptor and a matching 96 well receiver plate was used as the permeation donor. Compound solutions were prepared by diluting the 10 mmol/L DMSO stock solutions with 10% methanol in DPBS to a final concentration of […]. The compound solutions were added to the wells (300 μL/well) of the receiver plate and DPBS with 10% methanol was added to the wells (200 μL/well) of the pre-coated filter plate. The filter plate was then coupled with the receiver plate and the plate assembly was incubated at 25° C. without agitation for 5 h. At the end of the incubation, the plate was separated and the final concentrations of compounds in both donor wells and acceptor wells were analyzed using LC-MS/MS. Permeability of a compound was calculated using the Eq. (1):
where A=filter area (0.3 cm^2), VD=donor well volume (0.3 mL), VA=acceptor well volume (0.2 mL), t=incubation time (seconds), CA(t)=compound concentration in acceptor well at time t, CD(t)=compound concentration in donor well at time t, and Ceq was calculated using the Eq. (2): […]
A cutoff criterion of Pe value at […] was used to classify the compounds into high and low permeability according to the literature report of this PAMPA plate system^1.

[6] = Liver S9 stability assay, human liver S9; conditions: n = 2, mean±SD
[7] = Plasma stability assay, human plasma; format: in vitro ADME
Protocol: (§1) Plasma stability assay. The plasma stability assay was performed in triplicate by incubating each selected compound (1 μmol/L final concentration) in normal mouse (CD-1) or human plasma (Innovative Research; Novi, MI, USA) diluted to 80% with 0.1 mol/L potassium phosphate buffer (pH 7.4) at 37° C. At 0, 1, 3, 6, and 24 h, a 50 μL aliquot of the plasma mixture was taken and quenched with 150 μL of acetonitrile containing 0.1% formic acid. The samples were then vortexed and centrifuged at 15,000 rpm (Eppendorf centrifuge 5424R; Enfield, CT, USA) for 5 min. The supernatants were collected and analyzed by LC-MS/MS to determine the in vitro plasma half-life (t1/2).

[8] = Liver S9 stability assay, mouse liver S9; conditions: n = 2, mean±SD; for Mouse Liver S9 Stability t1/2, Phase II: cofactor UDPGA
SARS-CoV-2 Nsp14 MTase = SARS-CoV-2 Nsp14 MTase (Severe acute respiratory syndrome coronavirus 2, UniProt P0DTD1); test: biochemical; format: biochemical
[9] = Plasma stability assay, mouse plasma; format: in vitro ADME, mouse (CD-1)
Protocol: as §1

## CC(C)C(=O)O[C@@H]1[C@H](OC(=O)C(C)C)[C@@H](CNS(=O)(=O)c2ccc3ccccc3c2)O[C@H]1n1cnc2c(N)ncnc21 [Compound 7, (2R,3R,4R,5R)-2-(6-Amino-9H-purin-9-yl)-5-((naphthalene-2-sulfonamido)methyl)tetrahydrofuran-3,4-diyl bis(2-methylpropanoate)]
[1]; A549 AT cells
  antiviral activity: showed antiviral activity
A549/ACE2/TMPRSS2 cells
  CC50: > 100 µM
[2]
  solubility: low solubility
[3]
  EC50: ~97 µM

## Nc1ncnn2c([C@@H]3O[C@H](CNS(=O)(=O)c4ccc5ccccc5c4)[C@@H](O)[C@H]3O)ccc12 [Compound 10, N-(((2R,3S,4R,5S)-5-(4-Aminopyrrolo[2,1-f][1,2,4]triazin-7-yl)-3,4-dihydroxytetrahydrofuran-2-yl)methyl)naphthalene-2-sulfonamide]
other
  stability in mouse S9 phase I reactions: surprisingly labile
[4]
  stability in human liver S9 fractions: similarly stable
[5]; PAMPA
  passive diffusion rate in PAMPA: equally low
[5]; n = 6, mean±SD, 25° C., 5 h
  PAMPA Permeability Pe: 0.2 ± 0.1 10^−6 cm/s
[6]; cofactor NADPH
  Human Liver S9 Stability t1/2, Phase I: 842 ± 210 min
[6]; cofactor UDPGA
  Human Liver S9 Stability t1/2, Phase II: >45^e min
[7]; human plasma, 37° C., n = 3
  Plasma Stability t1/2, Human: >24^d h
[7]; human, plasma
  stability in human plasma: similarly stable
[1]; CC50/EC50
  therapeutic index (TI=CC50/EC50): greater than 139
A549/ACE2/TMPRSS2 cells
  CC50: > 100 µM
[8]; cofactor NADPH
  Mouse Liver S9 Stability t1/2, Phase I: 28.9 ± 0.3 min
[8]
  Mouse Liver S9 Stability t1/2, Phase II: >45^e min
SARS-CoV-2 Nsp14 MTase
  MTase inhibitory activity: comparable to that of 3
SARS-CoV-2 Nsp14 MTase; LC-MS/MS detection of SAH, read-out: MTase IC50
  IC50: 0.093 µM
[3]
  EC50: 0.72 µM
[9]; mouse plasma, 37° C., n = 3
  Plasma Stability t1/2, Mouse: >24^d h
[9]; mouse, plasma
  stability in mouse plasma: similarly stable

## O=c1ccc2ccc(O)cc2o1 [Umbelliferone, reference compound]
[8]
  Mouse Liver S9 Stability t1/2, Phase II: 0.8 ± 0.005 min
